Assay results reported in PMC9643853, “Synthesis and evaluation of 3-alkynyl-5-aryl-7-aza-indoles as broad-spectrum antiviral agents” (Frontiers in Chemistry, 2022).
Where two headings read alike, the source gives them in different places.

Tests used:
[1] = test system: VEEV (TC-83); conditions: U-87 MG cells; recently reported; ref Pu et al., 2020; cited from earlier work
[2] = test system: U-87 MG cells; set-up: method as in Pu et al., 2020; conditions: ref Pu et al., 2020; cited from earlier work
[3] = test system: RSV-A; assay: RSV-A cytopathic effect (CPE) reduction assay in HEp-2 cells, MTS read-out; format: cell-based, human respiratory syncytial virus, RSV-A strain Long
[4] = target: AAK1 (Homo sapiens, UniProt Q2M2I8); assay: LanthaScreen Eu Kinase Binding Assay for AAK1
AAK1, sequence (Q2M2I8 whole entry): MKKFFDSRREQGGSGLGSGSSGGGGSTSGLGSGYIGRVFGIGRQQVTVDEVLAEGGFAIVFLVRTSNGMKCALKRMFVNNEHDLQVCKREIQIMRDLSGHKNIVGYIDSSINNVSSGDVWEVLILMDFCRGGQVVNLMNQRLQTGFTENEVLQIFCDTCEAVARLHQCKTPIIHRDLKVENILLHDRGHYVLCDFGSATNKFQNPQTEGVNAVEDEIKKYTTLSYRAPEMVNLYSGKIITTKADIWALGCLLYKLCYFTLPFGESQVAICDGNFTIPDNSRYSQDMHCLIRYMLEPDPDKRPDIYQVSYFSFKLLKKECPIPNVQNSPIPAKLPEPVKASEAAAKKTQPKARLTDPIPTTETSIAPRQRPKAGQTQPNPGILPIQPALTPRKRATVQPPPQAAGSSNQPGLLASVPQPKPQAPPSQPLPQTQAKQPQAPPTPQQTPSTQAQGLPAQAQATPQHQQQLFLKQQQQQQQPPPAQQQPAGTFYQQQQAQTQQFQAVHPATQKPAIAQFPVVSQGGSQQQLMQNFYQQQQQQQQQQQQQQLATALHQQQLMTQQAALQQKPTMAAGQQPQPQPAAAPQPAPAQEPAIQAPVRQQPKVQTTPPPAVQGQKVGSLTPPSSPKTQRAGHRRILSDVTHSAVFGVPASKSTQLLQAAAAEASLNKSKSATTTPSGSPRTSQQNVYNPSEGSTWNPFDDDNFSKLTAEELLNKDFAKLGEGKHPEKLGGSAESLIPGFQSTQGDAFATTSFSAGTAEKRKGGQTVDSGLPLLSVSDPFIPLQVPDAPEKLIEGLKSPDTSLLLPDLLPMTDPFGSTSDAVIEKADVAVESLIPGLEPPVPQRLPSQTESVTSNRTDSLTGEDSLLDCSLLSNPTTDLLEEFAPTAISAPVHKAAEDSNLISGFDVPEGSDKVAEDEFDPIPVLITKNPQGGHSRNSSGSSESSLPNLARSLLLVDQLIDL

[5] = test system: VEEV (TC-83); assay: microbe, parasite or virus in culture; format: cell-based; conditions: Venezuelan equine encephalitis virus, U-87 MG, 18 h, read-out: VEEV EC50
[6] = target: adaptor-associated kinase 1 (AAK1); set-up: method as in Verdonck et al., 2019; conditions: ref Verdonck et al., 2019; read-out: AAK1 IC50 (enzymatic assay); cited from earlier work
[7] = in vitro; conditions: human
[8] = in vitro; conditions: human; remark: listed apart in the source
[9] = test system: RSV-A; assay: Anti-RSV-A activity in A549 cells, viral RNA in supernatant by RT-qPCR; format: cell-based, RSV-A strain Long; conditions: human respiratory syncytial virus, 120 h; A549 cells, RT-qPCR of culture supernatant, MOI 0.1, 5 days; read-out: RSV-A EC50 (A549, viral RNA levels)
[10] = test system: SARS-CoV-2; assay: microbe, parasite or virus in culture; format: cell-based, SARS-CoV-2 BetaCov/Belgium/GHB-03021/2020; conditions: Severe acute respiratory syndrome coronavirus 2, 96 h, read-out: SARS-CoV-2 EC50
[11] = in vitro; conditions: African green monkey
[12] = human respiratory syncytial virus, HEp-2, 96 h; read-out: RSV-A EC50

COc1cc(O)c2c(c1)/C=C/C[C@H](O)[C@H](O)C(=O)/C=C\C[C@H](C)OC2=O [5Z-7-Oxozeanol]
EC50 [1]: 2660 ± 130 nM
CC50 [2]: > 10000 nM

COc1ccc(-c2cnc3[nH]cc(C#Cc4cccnc4)c3c2)cc1OC [Compound 1]
selectivity index (SI) ([3]; CC50 HEp-2 / EC50 RSV-A): 10.5
EC50 ([3]; human respiratory syncytial virus, HEp-2, 96 h, read-out: RSV-A EC50): 190 ± 130 nM
IC50 [4]: 4.2 nM
EC50 [5]: 1220 ± 220 nM
IC50 [6]: 4 nM
CC50 at 4 days [7]: 2000 nM
CC50 [8]: > 10000 nM

CCNC(=O)c1ccc(-c2cnc3[nH]cc(C#Cc4cccnc4)c3c2)cc1 [Compound 8b]
EC50 [3, 12]: 300 ± 280 nM
EC50 [9]: 10 nM
AAK1 affinity (in words) [4]: low nanomolar AAK1 affinity
IC50 [4]: 4 nM
EC50 [10]: 580 ± 50 nM
EC50 [5]: 6010 ± 1810 nM
CC50 at 4 days [7]: 50000 nM
CC50 [11]: > 100000 nM
CC50 [8]: > 10000 nM

CNC(=O)c1cccc(-c2cnc3[nH]cc(C#Cc4cccnc4)c3c2)c1 [Compound 8e]
EC50 [3, 12]: 290 ± 320 nM
EC50 [9]: 200 nM
AAK1 affinity (in words) [4]: low nanomolar AAK1 affinity
IC50 [4]: 3.5 nM
EC50 [5]: > 10000 nM
CC50 at 4 days [7]: > 50000 nM
CC50 [8]: > 10000 nM

O=C(NC1CC1)c1cccc(-c2cnc3[nH]cc(C#Cc4cccnc4)c3c2)c1 [Compound 8f]
EC50 [3, 12]: 160 ± 25 nM
EC50 [9]: 590 nM
AAK1 affinity (in words) [4]: low nanomolar AAK1 affinity
IC50 [4]: 5.4 nM
EC50 [5]: 2750 ± 1220 nM
CC50 at 4 days [7]: > 50000 nM
CC50 [8]: > 10000 nM
